Source: article PMC11459959, “Discovery of new acetamide derivatives of 5-indole-1,3,4-oxadiazol-2-thiol as inhibitors of HIV-1 Tat-mediated viral transcription” (Antimicrobial Agents and Chemotherapy, 2024)
Read-outs that look alike come from different tables or passages of the source.

Assays:
[1] = Cell viability of TZM-bl cells (PrestoBlue); format: cell-based; conditions: human
HIV-1NL4-3 = assay: HIV-1 replication in A3.01 cells (p24 […]); format: cell-based; conditions: for EC50: Human immunodeficiency virus 1, 72 h, HIV-1NL4-3 MOI 0.1, 3 days; for inhibition of viral replication (in words): fivefold serial dilutions, 3 days
Procedure: (§1) The p24 level from the cell supernatant was subsequently determined using a p24 […] kit (PerkinElmer). In parallel, the cell viability was determined without viral infection because of the viral cytopathic effect. […] In parallel, cell viability was determined. The data (A and B) are presented as the mean ± SD (n = 3). (C) PBMCs (4 × 10^5) infected with HIV-AD8 at an MOI of 0.1 were treated with 1.5 µM of the compounds or ARVs for 3 days. The levels of p24 and cell viability were subsequently determined. (D) J1.1 cells were cultured with the compounds ([…]) under 50 ng/mL phorbol myristate acetate (PMA) treatment for 2 days. The level of p24 was subsequently determined. (E) J-Lat 6.3 cells were treated with the compounds (1.5 µM) under 1 µg/mL of PMA for 2 days. The GFP-positive cell population was analyzed using flow cytometry. The data are represented as a value relative to the DMSO-treated vehicle (D) and a percent of the GFP^+ cell population (E) as mean ± SD (n = 3).
(§2) The inhibitory effects of the compounds on viral replication were determined with some minor modifications, as previously described ([12], [62]). […] PBMCs (4 × 10^5) pre-activated with PHA-M for 3 days were washed with fresh media to remove excess PHA-M and subsequently infected with HIV-1NL4-3 or HIV-1AD8 or PIs-resistant HIV-1 strains as A3.01 infection. After infection, the infectious media were replaced with fresh media supplemented with international 10 units (IU)/mL of IL-2 and the indicated compounds. At 72 h after infection, the inhibitory effect of the compounds on viral replication was determined by measuring the p24 amount, an HIV capsid protein, using an HIV-1 p24 […] kit (PerkinElmer, Waltham, MA, USA). Cell viability was determined as described above. The inhibitory effects on provirus reversing in J1.1 and J-Lat 6.3 cells were determined as previously described ([12], [41], [63]) with some minor modifications. Briefly, 5 × 10^4 persistently HIV-1-infected J1.1 or J-Lat 6.3 cells were cultured in either the presence or absence of the compounds at a final concentration of 1.5 µM and treated with PMA (50 ng/mL for J1.1 cells, 1 µg/mL for J-Lat 6.3 cells). Two days after treatment, the levels of viral production were determined using p24 […] for J1.1 cells and flow cytometry analysis for GFP-expressing J-Lat 6.3 cells.

Cell viability of PBMCs = format: cell-based; conditions: human
Procedure: as §1, §2

[2] = test system: proviral DNA integrated to the host chromosome; assay: Integrated proviral DNA, nested Alu-PCR in A3.01 cells; format: cell-based, HIV-1; conditions: compounds 5 µM, 40 h after infection
Procedure: Fig 5 (A) Time-of-addition assay. […] Subsequently, the cells were treated with the compounds at the indicated time points (0, 1, 2, 4, 6, 8, 10, 12, 24, 30, 36, 42, and 48 h) after HIV-1 infection. The final concentrations of compounds are described in Materials and Methods. Viral activity according to the timing of drug addition was measured as F-Luc activity at 54 h after infection. The relative activities are represented as the mean ± SD (n = 3) compared with the activity observed 54 h post-infection. The relative time frames associated with each HIV-1 infection step are defined based on the time frame of susceptibility to the drug that blocks that particular infection step. […] At 16 h after infection, the viral reverse transcription (RT) product (viral cDNA) level was determined by quantitative real-time PCR (RT-qPCR) using gag and 18S rRNA primer sets and represented as the mean ± SD (n = 3) normalized against the amount of the 18S rRNA compared with the DMSO control. **P < 0.01 compared with the vehicle (DMSO). (C) An in vitro integrase (IN) assay was performed with 10 µM of the indicated compounds following the manufacturer’s protocol. **P < 0.01 compared with vehicle (DMSO). (D) A3.01 cells were infected with HIV-1 upon treatment with the indicated compounds (5 µM) and ARVs (EFV and DTG) as the experimental controls. At 40 h after infection, cellular chromosomal DNA was purified, and the integrated proviral DNA was detected through nested Alu-PCR amplification.
The activity of HIV-1 RT was determined as previously described with some minor modifications ([66][–][68]). In brief, HIV-1NL4-3 obtained from plasmid transfection was treated with DNase I (2.5 U/mL) for 2 h at 37°C to remove the plasmid DNA. […] Sixteen hours after infection, the cell cytosolic DNA was isolated under RNase A treatment, and the RT products (cytosolic viral cDNA) were quantified using RT-qPCR and the following primers: gag forward, 5′-[…]-3′, gag reverse, 5′-[…]-3′; 18S rRNA forward, 5′-[…]-3′, 18S rRNA reverse, 5′-[…]-3′. The relative levels of RT products were analyzed using the ΔΔCt-method, as described above. In vitro integrase activity was determined using an HIV-1 integrase assay kit (XpressBio, Frederick, MD, USA) as previously described ([12]). In brief, a 96-well plate coated with donor substrate DNA was blocked, and HIV-1 integrase was then added to the plate. Subsequently, the compounds and target substrate DNA were added to the plate and incubated for 30 min at 37°C. The plate was washed and subsequently incubated with horse radish peroxidase. Integrase activity was measured by the peroxidase activity with the substrate at an optical density of 450 nm. The experiment was performed in triplicates. Detection of integrated proviral DNA was performed as previously described ([69]) with some minor modifications. […] Chromosomal DNA was purified using the G-Spin DNA extraction kit (Intron Bio Tech, Seongnam-si, Gyeonggi-do, Republic of Korea). The integrated proviral HIV-1 DNA was detected by nested Alu-PCR amplification using the following primers: first round PCR, Alu forward, 5′-[…]-3′, pol reverse, 5′-[…]-3′; second round PCR, gag forward, 5′-[…]-3′, pol reverse. gapdh was used as the control gene.

[3] = PBMCs, absence of HIV-1 infection, mean ± SD, read-out: CC50

SMILES	CC50 at 48 h ([1]; TZM-bl cells, absence of HIV-1 infection, mean ± SD, read-out: CC50) [µM]	SI (CC50/EC50) (HIV-1NL4-3)	EC50 (HIV-1NL4-3; p24) [µM]	CC50 at 3 days (Cell viability of PBMCs; [3]) [µM]	CC50 at 48 h [1] [µM]	EC50 (HIV-1NL4-3; p24, mean ± SD) [µM]	inhibition of viral replication (in words) (HIV-1NL4-3)	nested Alu-PCR band for integrated proviral DNA [2]	CC50 at 3 days (Cell viability of PBMCs) [µM]
CC(C)[C@]12O[C@H]1[C@@H]1O[C@]13[C@]1(O[C@H]1C[C@H]1C4=C(CC[C@@]13C)C(=O)OC4)[C@@H]2O [triptolide, reference compound]	0.02	54.05	0.00407 ± 0.0023	0.19					
Cc1[nH]c2ccc(-c3nnc(SCC(=O)N4CCCC4)o3)cc2c1C [Compound 13, 2-((5-(2,3-Dimethyl-1H-indol-5-yl)-1,3,4-oxadiazol-2-yl)thio)-1-(pyrrolidin-1-yl)ethan-1-one]		93.29			47.1 ± 7.72	0.51 ± 0.21	inhibited the viral replication	observed	45.2 ± 5.69
Cc1[nH]c2ccc(-c3nnc(SCC(=O)N4CCCCC4)o3)cc2c1C [Compound 9, 2-((5-(2,3-Dimethyl-1H-indol-5-yl)-1,3,4-oxadiazol-2-yl)thio)-1-(piperidin-1-yl)ethan-1-one]		224.40			63.2 ± 5.94	0.25 ± 0.06	inhibited the viral replication	observed	44.1 ± 3.71
O=C1Nc2ccc(Cl)cc2[C@@](C#CC2CC2)(C(F)(F)F)O1 [EFV, efavirenz, reference compound]		>22,740	< 0.001	29.5 ± 3.62				not detected	
C[C@@H]1CCO[C@H]2Cn3cc(C(=O)NCc4ccc(F)cc4F)c(=O)c(O)c3C(=O)N12 [DTG, dolutegravir, reference compound]		>7,670	< 0.001					not detected	18.3 ± 0.58
